Data on one compound can be found in patent publication US6576641B2, “Fused heterocyclic compounds and their use in the treatment of neurodegenerative diseases” (Neurosearch A/S, priority 1999, dated 2003).

The subject of assay [1] is differentiated PC12 cells. The assay is described as follows: Survival of differentiated PC12 cells after NGF withdrawal, cell viability by reduction of MTS. In kind it is cell-based. The method, then:
(§1) Survival of Differentiated PC12 Cells after NGF Withdrawal
(§2) PC12 cells are considered models for […] neurons for the investigation of neuronal differentiation and apoptosis.
(§3) PC12 cells were seeded in collagen coated 96 well plates at a cell density of 8000/cm^2 in DMEM with 7.5% FCS, 7.5% HS and 2 nM NGF and cultured for 6 days.
(§4) The medium was then changed to DMEM without serum supplemented with the compound of the test compound in the concentrations indicated in FIG. 1. As a positive control, parallel wells receiving serum-free DMEM without addition of vehicle or 3 nM NGF were included.
After 4 days of incubation, cell viability was evaluated by reduction of MTS using the CellTiter 96 AQueous Non-radioactive Cell Proliferation Assay (available from Promega).
Data are expressed as % of the response seen with 3 nM NGF, and corrected for residual MTS reduction activity in the parallel serum-free cultures, cf. FIG. 1A.

The test system of assay [2] is differentiated PC12 cells. The assay is described as follows: Survival of differentiated PC12 cells after NGF withdrawal, cell viability by CyQUANT. In kind it is cell-based. The conditions noted are these: differentiated PC12 cells in serum-free medium, after 4 days; FIG. 1B. The method, then: as §1, §2, §3, §4
In another assay cell viability after 4 days was evaluated by using the CyQUANT Cell Proliferation Kit from Molecular Probes. CyQUANT might give a better correlation with the actual cell number of the culture than MTS, which rather reflects the total metabolic activity of the culture, cf. FIG. 1B.

Turning to `CCCCN1CCc2oc(-c3ccc([N+](=O)[O-])cc3)cc2C1.O=C(O)/C=C/C(=O)O` [Compound 1, 6-(4-Nitrophenyl)-furano[3,2-c]-N-butyl-1,2,3,4-tetrahydropyridine Fumaric Acid Salt], the “rescue of differentiated PC12 cells in serum-free medium” value in assay [1] (at nanomolar concentrations, stated for both MTS and CyQUANT experiments) is “potent dose-dependent rescue”. In addition, the “maximal protection (cell viability, MTS)” value in assay [1] (differentiated PC12 cells in serum-free medium, 4 days of incubation, % of the response seen with 3 nM NGF, corrected for serum-free cultures, FIG. 1A) is listed as “approximately 30%”. In assay [1] (differentiated PC12 cells in serum-free medium, tested 1 nM to 10 μM, stated for both MTS and CyQUANT experiments), the “concentration giving maximal protection” value turned out to be 100 nM. In addition, the “maximal rescue (cell survival, CyQUANT)” value in assay [2] is “approximately 50%”.
